Consider one compound from publication PMC5218480 (PLoS ONE, 2017).

Molecules are shown by their SMILES.

The experiment deals with MV-4-11 cells. Nature of the experiment: Gene expression microarray analysis (Affymetrix PrimeView) and GSEA. It counts as cell-based, human. More on the design: RFU PODN (11730768_x_at) / Fold change /veh PODN (11730768_x_at) / RFU LINC00158 (11744669_a_at) / Fold change /veh LINC00158 (11744669_a_at) / RFU DUSP10 (11751237_a_at) / Fold change /veh DUSP10 (11751237_a_at) / RFU ID3 (11757404_x_at) / Fold change /veh ID3 (11757404_x_at) / RFU PLEKHG5 (11737974_s_at) / Fold change /veh PLEKHG5 (11737974_s_at) / RFU LRRC4B (11730491_at) / Fold change /veh LRRC4B (11730491_at) / RFU GIMAP4 (11747438_a_at) / Fold change /veh GIMAP4 (11747438_a_at) / RFU KRT8 (11758183_x_at) / Fold change /veh KRT8 (11758183_x_at) / RFU CNN1 (11734310_a_at) / Fold change /veh CNN1 (11734310_a_at) / RFU VPS37D (11726825_at) / Fold change /veh VPS37D (11726825_at) / RFU C10orf10 (11716522_x_at) / Fold change /veh C10orf10 (11716522_x_at) / RFU KIR2DL2 /// KIR2DL4 /// KIR2DL5A /// KIR2DL5B /// KIR2DS1 /// KIR2DS2 /// KIR2DS3 /// KIR2DS4 /// KIR3DL3 /// KIR3DL3 /// KIR3DS1 (11738374_at) / Fold change /veh KIR2DL2 /// KIR2DL4 /// KIR2DL5A /// KIR2DL5B /// KIR2DS1 /// KIR2DS2 /// KIR2DS3 /// KIR2DS4 /// KIR3DL3 /// KIR3DL3 /// KIR3DS1 (11738374_at) / RFU C1QL1 (11718748_at) / Fold change /veh C1QL1 (11718748_at) / RFU TMPRSS4 (11747572_a_at) / Fold change /veh TMPRSS4 (11747572_a_at) / RFU HAMP (11756126_x_at) / Fold change /veh HAMP (11756126_x_at) / RFU RNFT2 (11725882_a_at) / Fold change /veh RNFT2 (11725882_a_at) / RFU NR4A2 (11747474_a_at) / Fold change /veh NR4A2 (11747474_a_at) / RFU ABCC12 (11746883_a_at) / Fold change /veh ABCC12 (11746883_a_at) / RFU TMEM136 (11760407_x_at) / Fold change /veh TMEM136 (11760407_x_at) / RFU CLDN22 /// WWC2 (11732394_at) / Fold change /veh CLDN22 /// WWC2 (11732394_at) / RFU HLA-DPB1 (11760878_x_at) / Fold change /veh HLA-DPB1 (11760878_x_at) / RFU SPINT1 (11716480_a_at) / Fold change /veh SPINT1 (11716480_a_at) / RFU GAP43 (11754022_s_at) / Fold change /veh GAP43 (11754022_s_at) / RFU A4GNT (11735810_at) / Fold change /veh A4GNT (11735810_at) / RFU PRB3 (11715151_x_at) / Fold change /veh PRB3 (11715151_x_at) / RFU TUBB4B (11761932_at) / Fold change /veh TUBB4B (11761932_at) / RFU CAPN14 (11732068_a_at) / Fold change /veh CAPN14 (11732068_a_at) / RFU TMCC2 (11721928_a_at) / Fold change /veh TMCC2 (11721928_a_at) / RFU IRGQ (11745062_a_at) / Fold change /veh IRGQ (11745062_a_at) / RFU FAM174B (11720279_a_at) / Fold change /veh FAM174B (11720279_a_at) / RFU TMPRSS4 (11748680_a_at) / Fold change /veh TMPRSS4 (11748680_a_at) / RFU FAM212B (11763350_a_at) / Fold change /veh FAM212B (11763350_a_at) / RFU PLEKHG5 (11743358_a_at) / Fold change /veh PLEKHG5 (11743358_a_at) / RFU ZSCAN30 (11745921_a_at) / Fold change /veh ZSCAN30 (11745921_a_at) / RFU CMKLR1 (11741424_a_at) / Fold change /veh CMKLR1 (11741424_a_at) / RFU LOC101060620 /// MAPK8IP1 (11723275_at) / Fold change /veh LOC101060620 /// MAPK8IP1 (11723275_at) / RFU SPTSSB (11747773_x_at) / Fold change /veh SPTSSB (11747773_x_at) / RFU PRSS12 (11739890_at) / Fold change /veh PRSS12 (11739890_at) / RFU BIN1 (11741810_x_at) / Fold change /veh BIN1 (11741810_x_at) / RFU WNT11 (11732464_a_at) / Fold change /veh WNT11 (11732464_a_at) / RFU C10orf10 (11716521_a_at) / Fold change /veh C10orf10 (11716521_a_at) / RFU C5orf56 (11738089_at) / Fold change /veh C5orf56 (11738089_at) / RFU CYB561 (11721691_x_at) / Fold change /veh CYB561 (11721691_x_at) / RFU ANKRD19P (11752326_a_at) / Fold change /veh ANKRD19P (11752326_a_at) / RFU OR2T12 /// OR2T33 /// OR2T8 (11738714_s_at) / Fold change /veh OR2T12 /// OR2T33 /// OR2T8 (11738714_s_at) / RFU VCAN (11748164_a_at) / Fold change /veh VCAN (11748164_a_at) / RFU JSRP1 (11732532_at) / Fold change /veh JSRP1 (11732532_at) / RFU KRTAP10-11 (11738290_x_at) / Fold change /veh KRTAP10-11 (11738290_x_at) / RFU MYO3A (11730013_a_at) / Fold change /veh MYO3A (11730013_a_at) / RFU EBF3 (11725865_a_at) / Fold change /veh EBF3 (11725865_a_at) / RFU CAMK2N1 (11719241_x_at) / Fold change /veh CAMK2N1 (11719241_x_at) / RFU C5orf56 (11738088_a_at) / Fold change /veh C5orf56 (11738088_a_at) / RFU OLFML3 (11715873_a_at) / Fold change /veh OLFML3 (11715873_a_at) / RFU LOC100653217 /// NTM (11731650_a_at) / Fold change /veh LOC100653217 /// NTM (11731650_a_at) / RFU MAPK11 (11762145_a_at) / Fold change /veh MAPK11 (11762145_a_at) / RFU FIZ1 (11724087_x_at) / Fold change /veh FIZ1 (11724087_x_at) / RFU OASL (11726364_x_at) / Fold change /veh OASL (11726364_x_at) / RFU SOX15 (11748057_x_at) / Fold change /veh SOX15 (11748057_x_at) / RFU CD79A (11719716_a_at) / Fold change /veh CD79A (11719716_a_at) / RFU HIST1H1D (11736915_at) / Fold change /veh HIST1H1D (11736915_at) / RFU CASKIN2 (11723855_a_at) / Fold change /veh CASKIN2 (11723855_a_at) / RFU LOC730098 (11760151_x_at) / Fold change /veh LOC730098 (11760151_x_at) / RFU OR4N2 (11742367_at) / Fold change /veh OR4N2 (11742367_at) / RFU PRRT2 (11749266_a_at) / Fold change /veh PRRT2 (11749266_a_at) / RFU SNX32 (11753110_a_at) / Fold change /veh SNX32 (11753110_a_at) / RFU CDHR5 (11726645_a_at) / Fold change /veh CDHR5 (11726645_a_at) / RFU RCAN1 (11760418_a_at) / Fold change /veh RCAN1 (11760418_a_at) / RFU FAM167A (11723789_a_at) / Fold change /veh FAM167A (11723789_a_at) / RFU FAM26E (11764081_at) / Fold change /veh FAM26E (11764081_at) / RFU ISYNA1 (11749810_s_at) / Fold change /veh ISYNA1 (11749810_s_at) / RFU ACY1 (11761880_at) / Fold change /veh ACY1 (11761880_at) / RFU 11764098_at / Fold change /veh 11764098_at / RFU SAMD14 (11745864_x_at) / Fold change /veh SAMD14 (11745864_x_at) / RFU NPB (11741838_a_at) / Fold change /veh NPB (11741838_a_at) / RFU TMPRSS6 (11731388_a_at) / Fold change /veh TMPRSS6 (11731388_a_at) / RFU KRTAP10-2 (11738614_at) / Fold change /veh KRTAP10-2 (11738614_at) / RFU ARHGAP8 /// PRR5-ARHGAP8 (11727945_x_at) / Fold change /veh ARHGAP8 /// PRR5-ARHGAP8 (11727945_x_at) / RFU KRTAP5-7 /// NADSYN1 (11734609_at) / Fold change /veh KRTAP5-7 /// NADSYN1 (11734609_at) / RFU RASL12 (11751679_a_at) / Fold change /veh RASL12 (11751679_a_at) / RFU CDKN2B (11736163_a_at) / Fold change /veh CDKN2B (11736163_a_at) / RFU PRF1 (11729649_at) / Fold change /veh PRF1 (11729649_at) / RFU, ZNF638 /// ZNF638-IT1 / Fold change vs veh, ZNF638 /// ZNF638-IT1 / RFU, PANK3 / Fold change vs veh, PANK3 / RFU, SH3YL1 / Fold change vs veh, SH3YL1 / RFU, ZEB2 / Fold change vs veh, ZEB2 / RFU, NRIP1 / Fold change vs veh, NRIP1 / RFU, PTTG1IP / Fold change vs veh, PTTG1IP / RFU, CAPN2 / Fold change vs veh, CAPN2 / RFU, MED14 / Fold change vs veh, MED14 / RFU, SNORA58 / Fold change vs veh, SNORA58 / RFU, C1orf63 / Fold change vs veh, C1orf63 / RFU, LRRFIP1 / Fold change vs veh, LRRFIP1 / RFU, NDUFAF7 / Fold change vs veh, NDUFAF7 / RFU, SLC12A2 / Fold change vs veh, SLC12A2 / RFU, IBTK / Fold change vs veh, IBTK / RFU, ESF1 / Fold change vs veh, ESF1 / Fold change vs veh, TMEM50B / RFU, TAOK1 / Fold change vs veh, TAOK1 / RFU, ACBD3 / Fold change vs veh, ACBD3 / RFU, TMA16 / Fold change vs veh, TMA16 / RFU, RWDD3 / Fold change vs veh, RWDD3 / RFU, BCAT1 / Fold change vs veh, BCAT1 / RFU, EDEM3 / Fold change vs veh, EDEM3 / RFU, TMEM33 / Fold change vs veh, TMEM33 / RFU, WDR75 / Fold change vs veh, WDR75 / RFU, AHCTF1 / Fold change vs veh, AHCTF1 / RFU, TFRC / Fold change vs veh, TFRC / RFU, ZDHHC17 / Fold change vs veh, ZDHHC17 / RFU, NOM1 / Fold change vs veh, NOM1 / RFU, ARL8B / Fold change vs veh, ARL8B / RFU, ZBTB11 / Fold change vs veh, ZBTB11 / RFU, TAMM41 / Fold change vs veh, TAMM41 / RFU, KIAA1704 /// LOC100996395 / Fold change vs veh, KIAA1704 /// LOC100996395 / RFU, ING1 / Fold change vs veh, ING1 / RFU, TRMT61B / Fold change vs veh, TRMT61B / RFU, FUBP3 / Fold change vs veh, FUBP3 / RFU, TP53 / Fold change vs veh, TP53 / RFU, TNKS2 / Fold change vs veh, TNKS2 / RFU, ZFP14 / Fold change vs veh, ZFP14 / RFU, ACTR2 / Fold change vs veh, ACTR2 / RFU, PPP3R1 / Fold change vs veh, PPP3R1 / RFU, PIK3R1 / Fold change vs veh, PIK3R1 / RFU, HNRNPA1 / Fold change vs veh, HNRNPA1 / RFU, RNF170 / Fold change vs veh, RNF170 / RFU, ZNF28 / Fold change vs veh, ZNF28 / RFU, RNGTT / Fold change vs veh, RNGTT / RFU, OGT / Fold change vs veh, OGT / RFU, BRD1 / Fold change vs veh, BRD1 / RFU, MARS / Fold change vs veh, MARS / RFU, ZNF655 / Fold change vs veh, ZNF655 / RFU, FAHD1 / Fold change vs veh, FAHD1 / RFU, BDP1 / Fold change vs veh, BDP1 / RFU, LRRCC1 / Fold change vs veh, LRRCC1 / RFU, ARID1A / Fold change vs veh, ARID1A / RFU, ZNF146 / Fold change vs veh, ZNF146 / RFU, ZNF330 / Fold change vs veh, ZNF330 / RFU, GPN3 / Fold change vs veh, GPN3 / RFU, C9orf123 / Fold change vs veh, C9orf123 / RFU, N4BP2L2 / Fold change vs veh, N4BP2L2 / RFU, ARFIP1 / Fold change vs veh, ARFIP1 / RFU, FAM179B / Fold change vs veh, FAM179B / RFU, BCL10 / Fold change vs veh, BCL10 / RFU, UHRF1BP1L / Fold change vs veh, UHRF1BP1L / RFU, BET1 / Fold change vs veh, BET1 / RFU, CNOT2 / Fold change vs veh, CNOT2 / RFU, ZNF268 / Fold change vs veh, ZNF268 / Fold change vs veh, ZNF507 / RFU, DGCR2 / Fold change vs veh, DGCR2 / RFU, WDSUB1 / Fold change vs veh, WDSUB1 / Fold change vs veh, HSP90B1 /// MIR3652 / RFU, ADSS / Fold change vs veh, ADSS / RFU, GK / Fold change vs veh, GK / RFU, ZNF148 / Fold change vs veh, ZNF148 / RFU, TAF9 / Fold change vs veh, TAF9 / RFU, SLC1A5 / Fold change vs veh, SLC1A5 / RFU, SLMO2 / Fold change vs veh, SLMO2 / RFU, ABCC4 / Fold change vs veh, ABCC4 / RFU, LOC101060439 /// RAP1B / Fold change vs veh, LOC101060439 /// RAP1B / RFU, RFX7 / Fold change vs veh, RFX7 / RFU, GTPBP10 / Fold change vs veh, GTPBP10 / RFU, CNEP1R1 / Fold change vs veh, CNEP1R1 / RFU, BIVM-ERCC5 /// ERCC5 / Fold change vs veh, BIVM-ERCC5 /// ERCC5 / RFU, ILF3 / Fold change vs veh, ILF3 / RFU 11762660_at / Fold change /veh 11762660_at / RFU VCAN (11757783_s_at) / Fold change /veh VCAN (11757783_s_at) / RFU DDX43 (11728927_at) / Fold change /veh DDX43 (11728927_at) / RFU KRT8 (11758188_x_at) / Fold change /veh KRT8 (11758188_x_at) / RFU NKD1 (11759106_at) / Fold change /veh NKD1 (11759106_at) / RFU SRD5A1 (11742802_a_at) / Fold change /veh SRD5A1 (11742802_a_at) / RFU TPSAB1 /// TPSB2 (11721975_s_at) / Fold change /veh TPSAB1 /// TPSB2 (11721975_s_at) / RFU GSTM3 (11746129_a_at) / Fold change /veh GSTM3 (11746129_a_at) / RFU IL23R (11737362_x_at) / Fold change /veh IL23R (11737362_x_at) / RFU TMEM51 (11727254_a_at) / Fold change /veh TMEM51 (11727254_a_at) / RFU PIWIL2 (11732686_x_at) / Fold change /veh PIWIL2 (11732686_x_at) / RFU ORM1 (11744905_x_at) / Fold change /veh ORM1 (11744905_x_at) / RFU CCDC152 (11743942_at) / Fold change /veh CCDC152 (11743942_at) / RFU ECM1 (11717891_a_at) / Fold change /veh ECM1 (11717891_a_at) / RFU IL23R (11748794_a_at) / Fold change /veh IL23R (11748794_a_at) / RFU TNFAIP8L3 (11732012_x_at) / Fold change /veh TNFAIP8L3 (11732012_x_at) / RFU MBOAT4 (11741988_at) / Fold change /veh MBOAT4 (11741988_at) / RFU 11764193_at / Fold change /veh 11764193_at / RFU TMEM53 (11763286_at) / Fold change /veh TMEM53 (11763286_at) / RFU MAGEB2 (11727129_at) / Fold change /veh MAGEB2 (11727129_at) / RFU TMEM200A (11744735_a_at) / Fold change /veh TMEM200A (11744735_a_at) / RFU CCDC152 (11751479_a_at) / Fold change /veh CCDC152 (11751479_a_at) / RFU FAM211A (11726209_a_at) / Fold change /veh FAM211A (11726209_a_at) / RFU RGS16 (11746705_a_at) / Fold change /veh RGS16 (11746705_a_at) / RFU VCAN (11755009_s_at) / Fold change /veh VCAN (11755009_s_at) / RFU RHOB (11743442_s_at) / Fold change /veh RHOB (11743442_s_at) / RFU RGS16 (11720943_a_at) / Fold change /veh RGS16 (11720943_a_at) / RFU RGS16 (11720944_at) / Fold change /veh RGS16 (11720944_at) / RFU, VPS4B / Fold change vs veh, VPS4B / RFU, CREB1 / Fold change vs veh, CREB1 / RFU, DNAJC13 / Fold change vs veh, DNAJC13 / RFU, GNAQ / Fold change vs veh, GNAQ / RFU, CDK5R1 / Fold change vs veh, CDK5R1 / RFU, ZRANB3 / Fold change vs veh, ZRANB3 / RFU, CUL4A / Fold change vs veh, CUL4A / RFU, CCNY / Fold change vs veh, CCNY / RFU, UFL1 / Fold change vs veh, UFL1 / RFU, COG3 / Fold change vs veh, COG3 / RFU, DIAPH2 / Fold change vs veh, DIAPH2 / RFU, SKA2 / Fold change vs veh, SKA2 / RFU, AFF3 / Fold change vs veh, AFF3 / RFU, LMF1 / Fold change vs veh, LMF1 / RFU, IPO11 / Fold change vs veh, IPO11 / RFU, DFFB / Fold change vs veh, DFFB / RFU, FOXP1 / Fold change vs veh, FOXP1 / RFU, CARD8 / Fold change vs veh, CARD8 / RFU, STRN3 / Fold change vs veh, STRN3 / RFU, ADK / Fold change vs veh, ADK / RFU, RASSF2 / Fold change vs veh, RASSF2 / RFU, WIPF1 / Fold change vs veh, WIPF1 / RFU, LARP1B / Fold change vs veh, LARP1B / RFU, RASA1 / Fold change vs veh, RASA1 / RFU, RB1 / Fold change vs veh, RB1 / RFU, PPFIA1 / Fold change vs veh, PPFIA1 / RFU, MAT2A / Fold change vs veh, MAT2A / RFU, CCT5 / Fold change vs veh, CCT5 / RFU, WDR92 / Fold change vs veh, WDR92 / RFU, CUX1 / Fold change vs veh, CUX1 / RFU, TTC7A / Fold change vs veh, TTC7A / RFU, TMEM135 / Fold change vs veh, TMEM135 / RFU, DEPTOR / Fold change vs veh, DEPTOR / RFU, CPM / Fold change vs veh, CPM / RFU, DNAJB6 / Fold change vs veh, DNAJB6 / RFU, CACNA2D3 / Fold change vs veh, CACNA2D3 / RFU, DTX4 / Fold change vs veh, DTX4 / RFU, TFCP2 / Fold change vs veh, TFCP2 / RFU, GMCL1 /// GMCL1P1 / Fold change vs veh, GMCL1 /// GMCL1P1 / RFU, AEBP2 / Fold change vs veh, AEBP2 / RFU, SNHG1 /// SNORD22 /// SNORD25 /// SNORD26 /// SNORD27 /// SNORD28 /// SNORD29 /// SNORD31 / Fold change vs veh, SNHG1 /// SNORD22 /// SNORD25 /// SNORD26 /// SNORD27 /// SNORD28 /// SNORD29 /// SNORD31 / Fold change (Aza/veh), C12orf56 (ProbeSet 11735607_a_at) / Fold change (ACY-1035/veh), C12orf56 (ProbeSet 11735607_a_at) / Fold change (Aza/veh), FGFR1OP (ProbeSet 11751329_s_at) / Fold change (ACY-1035/veh), FGFR1OP (ProbeSet 11751329_s_at) / Fold change (Aza/veh), VPS36 (ProbeSet 11739960_a_at) / Fold change (ACY-1035/veh), VPS36 (ProbeSet 11739960_a_at) / RFU SYPL1 (11715823_x_at) / Fold change /veh SYPL1 (11715823_x_at) / RFU IGFBP7 (11715501_s_at) / Fold change /veh IGFBP7 (11715501_s_at) / RFU REEP3 (11722064_at) / Fold change /veh REEP3 (11722064_at) / RFU IGLL1 (11728026_x_at) / Fold change /veh IGLL1 (11728026_x_at): dose or concentration left out as unconfirmed. The conditions noted are these: MV-4-11 cells, 48 hours.

For the compound `Nc1ncn([C@@H]2O[C@H](CO)[C@@H](O)[C@H]2O)c(=O)n1` [azacitidine], the “Fold change /veh GSTM3 (11746129_a_at)” value was 1.35.
